Reference: publication PMC4915154, “Development of background-free tame fluorescent probes for intracellular live cell imaging” (Nature Communications, 2016)

Legend:
[1] = test system: CoK-bearing α-tubulin in CHO-K1 cells; experiment: Protein labelling on live cells using CoK (α-tubulin), CHO-K1; format: cell-based; conditions: CoK at position 26 of α-tubulin, 10 μM AzG-1, 2 h, 37 °C
Procedure: (§1) Excited with the results, we further challenged the model and developed another ‘tame' azide-bearing probe, AzG-1, to label molecules in mitochondria and the fancy tubulin protein in living cells (Figs 4a,b). To target mitochondria, U-2 OS cells were pre-treated with TPP-BCN (an analogue of triphenylphosphonium) before labelled with 10 μM AzG-1. For tubulin labelling, a cyclooctyne-containing UAA, N-ɛ-(cyclooct-2-yn-1-yloxy)carbonyl)L-lysine (CoK) was selected for incorporating into tubulin and reacting with AzG-1 via SPAAC.[29] CHO-K1 cells were co-transfected with plasmids pCoKRS-tRNA and pTub-26TAG to incorporate CoK into α-tubulin at position 26. Site-specific incorporation of CoK using an orthogonal tRNA^Pyl/CoKRS pair was confirmed via western blot analysis (Supplementary Figs. 19 and 20). After incorporation of CoK, cells were then labelled with 10 μM AzG-1 at 37 °C. CHO-K1 cells transfected with plasmid pEGFP-Tubwt expressing EGFP-fused wild-type α-tubulin was used as a control. Confocal fluorescence images were then taken AW of unreacted AzG-1.
(§2) Figure 4 Live cell imaging with AzG-1 (a) Chemical structures of azide-bearing probe AzG-1 and its descriptor values. […] (c) Fluorescence imaging of mitochondria in U-2 OS cells labelled with AzG-1. […] (d) Fluorescence imaging of α-tubulin in live CHO-K1 cells. […]

[2] = test system: CoK-bearing α-tubulin in HeLa cells; experiment: Protein labelling on live cells using CoK (α-tubulin), HeLa; format: cell-based; conditions: CoK-bearing α-tubulin versus wild type
Procedure: CHO-K1 or HeLa cells were grown in DMEM-low glucose 1 g l^−1 (Gibco) supplemented with 10% FBS (Gibco) in eight-well plate (ibid). At 70∼80% confluency, cells were transfected using 4 μl iN-fect in vitro transfection reagent with 100 ng pCoKRS-tRNA and 900 ng pTub-26TAG or with 900 ng pTubwt. After 6 h of incubation, media was replaced with fresh media (DMEM-low glucose medium with 10% FBS, 1% Pen-Strep, 2 Mm […]) containing 0.25 Mm CoK. After an additional 36 h, media was exchanged with normal growth media without CoK and cells were incubated for 2 h and washed (four times) to remove remaining CoK. Next, growth media containing 1 μM AzG-1 was added to the plates, and cells were incubated for 2 h with four times of washing (30 min each time) using growth media. High-resolution images of live cells were obtained using a Zeiss LSM510 META laser scanning confocal microscope.
Supplementary Figure 21 Fluorescence imaging of α-tubulin in live HeLa.
HeLa cells were co-transfected with plasmids pCoKRS-tRNA and pTub-26TAG or plasmid pTubwt followed by sequential treatment with CoK and AzG-1 as described above. Live cell […]
in HeLa cells. Scale bar, 10 μm.
(1 picture or pasted object on this page, not shown here)

[3] = test system: mitochondria in U-2 OS cells; experiment: Mitochondria labelling with AzG-1 in cells pre-treated with TPP-BCN; format: cell-based, human; conditions: U-2 OS cells pre-treated with TPP-BCN, 10 μM AzG-1, 2 h
Procedure: as §1, §2

## CC1=CC(C)=[N+]2C1=C(CCC(=O)NCCN=[N+]=[N-])c1c(C)cc(C)n1[B-]2(F)F [AzG-1]
[1]
  Labelling of α-tubulin: conjugated specifically with CoK-bearing α-tubulin
[2]
  Labelling of α-tubulin: conjugated specifically with CoK-bearing α-tubulin
[3]
  Labelling of mitochondria: specifically labelled mitochondria
